Values quoted from earlier work, collected in US20090285767A1, “USE OF OZONATED LIQUIDS AND PEROXIDES TO WHITEN TEETH” (priority 2008, published 2009).

Details: gaseous ozone, device of the Lynch '985 patent

SMILES: O=[O+][O-] [gaseous ozone, ozone]
- whitening of extrinsic discoloration, effect on brown-colored melanoidins: ability of gaseous ozone to whiten extrinsic discoloration
